Activity calls are given as the source filed them.
Assays:
[1] = biological target: T1, Acyl-homoserine lactone acylase PvdQ (Pseudomonas aeruginosa (strain LESB58), UniProt Q9I194); assay: PvdQ acylase enzyme activity blockers – biochemical, fluorescence, plate reader and imaging, cherry-picks, dose response (AID 493231)
T1 sequence (Q9I194 whole entry): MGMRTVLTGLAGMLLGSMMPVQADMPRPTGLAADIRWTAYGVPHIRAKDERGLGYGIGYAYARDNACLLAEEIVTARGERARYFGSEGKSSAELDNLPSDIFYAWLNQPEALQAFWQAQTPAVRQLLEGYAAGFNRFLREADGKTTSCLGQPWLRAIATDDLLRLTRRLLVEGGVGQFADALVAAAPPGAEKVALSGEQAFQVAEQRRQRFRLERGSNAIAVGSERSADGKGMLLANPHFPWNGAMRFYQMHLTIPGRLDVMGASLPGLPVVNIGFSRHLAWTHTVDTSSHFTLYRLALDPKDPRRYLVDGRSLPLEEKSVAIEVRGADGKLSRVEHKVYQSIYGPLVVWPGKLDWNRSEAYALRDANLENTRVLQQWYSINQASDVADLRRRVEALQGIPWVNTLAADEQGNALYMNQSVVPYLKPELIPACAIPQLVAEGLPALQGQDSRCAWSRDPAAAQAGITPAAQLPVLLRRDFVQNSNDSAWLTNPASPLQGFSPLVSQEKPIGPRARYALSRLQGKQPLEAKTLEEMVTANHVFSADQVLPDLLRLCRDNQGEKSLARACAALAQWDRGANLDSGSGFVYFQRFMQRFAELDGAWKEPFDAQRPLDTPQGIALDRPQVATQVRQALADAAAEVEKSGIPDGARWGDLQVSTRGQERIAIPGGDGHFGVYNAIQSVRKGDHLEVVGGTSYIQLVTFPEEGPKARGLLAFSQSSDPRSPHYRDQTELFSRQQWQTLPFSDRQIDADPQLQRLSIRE

[2] = Luminescence-based counterscreen assay for KLF5 inhibitors: dose response cell-based high throughput screening assay to identify cytotoxic compounds using the IEC-6 intestinal epithelial cell line. [Related pubchem assays: 1700 (Primary screen.), 1834 (Confirmation screen.), 1858 (Summary AID.), 1905 (Counterscreen.)]; type: functional
Estrogen receptor = biological target: T2, Estrogen receptor (Homo sapiens, UniProt P03372);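 further: potency for inhibiting coactivator peptide recruitment to the receptor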
T2 sequence (P03372 whole entry): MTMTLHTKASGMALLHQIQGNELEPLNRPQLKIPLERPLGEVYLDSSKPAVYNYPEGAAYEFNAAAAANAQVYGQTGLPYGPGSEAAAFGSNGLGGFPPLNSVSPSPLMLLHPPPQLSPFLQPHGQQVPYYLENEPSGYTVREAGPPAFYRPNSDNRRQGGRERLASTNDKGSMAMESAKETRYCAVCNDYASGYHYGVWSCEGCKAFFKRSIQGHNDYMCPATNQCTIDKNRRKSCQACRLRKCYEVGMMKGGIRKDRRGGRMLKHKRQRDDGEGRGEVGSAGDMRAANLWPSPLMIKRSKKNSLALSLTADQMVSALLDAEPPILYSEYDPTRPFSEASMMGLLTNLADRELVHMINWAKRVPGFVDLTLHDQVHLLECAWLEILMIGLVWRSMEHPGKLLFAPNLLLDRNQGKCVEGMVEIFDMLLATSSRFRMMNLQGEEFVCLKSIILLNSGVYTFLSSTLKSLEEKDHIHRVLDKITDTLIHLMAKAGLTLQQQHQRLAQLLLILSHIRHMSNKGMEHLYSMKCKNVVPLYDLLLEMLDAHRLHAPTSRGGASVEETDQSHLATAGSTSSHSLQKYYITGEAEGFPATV

Protein Tat = biological target: T3, Protein Tat (Human immunodeficiency virus type 1 group M subtype B (isolate HXB2)(HIV-1), UniProt P04608); type: functional;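 further: tat binding to TAR RNA read out by fluorescence polarization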
T3 sequence (P04608 whole entry): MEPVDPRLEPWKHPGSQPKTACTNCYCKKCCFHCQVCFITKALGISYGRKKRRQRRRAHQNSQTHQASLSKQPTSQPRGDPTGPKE

[3] = biological target: T4, Carboxy-terminal domain RNA polymerase II polypeptide A small phosphatase 1 (Homo sapiens, UniProt Q9GZU7); assay: CTDSP1 inhibitors, concentration-response, biochemical, absorbance readout, ultra-high-throughput screen actives (AID 540297); type: functional
T4 sequence (Q9GZU7 whole entry): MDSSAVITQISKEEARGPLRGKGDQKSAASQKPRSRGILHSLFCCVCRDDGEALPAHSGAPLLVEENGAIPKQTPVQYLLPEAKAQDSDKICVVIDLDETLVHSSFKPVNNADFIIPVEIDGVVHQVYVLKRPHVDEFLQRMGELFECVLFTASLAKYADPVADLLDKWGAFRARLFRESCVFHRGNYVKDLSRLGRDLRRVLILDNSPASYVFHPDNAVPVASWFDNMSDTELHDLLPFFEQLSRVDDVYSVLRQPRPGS

Estrogen receptor beta [4] = biological target: T5, Estrogen receptor beta (Homo sapiens, UniProt Q92731);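 further: recombinant ER-beta bound to coactivator SRC1 peptide in presence of estradiol agonist; inhibitors block coactivator peptide binding and lower the FRET signal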
Estrogen receptor beta [5] = biological target: T5, Estrogen receptor beta; assay: blockers of SRC-3 recruitment to ERβ – biochemical, ELISA, streptavidin-HRP readout, orthogonal assay, confirmation (AID 1060)
[6] = biological target: T6, Replicative DNA helicase DnaB (Mycobacterium tuberculosis, UniProt P9WMR3); assay: DnaB intein splicing inhibitors, dose response, biochemical, cell-free fluorescence (AID 449749); type: functional
T6 sequence (P9WMR3 whole entry): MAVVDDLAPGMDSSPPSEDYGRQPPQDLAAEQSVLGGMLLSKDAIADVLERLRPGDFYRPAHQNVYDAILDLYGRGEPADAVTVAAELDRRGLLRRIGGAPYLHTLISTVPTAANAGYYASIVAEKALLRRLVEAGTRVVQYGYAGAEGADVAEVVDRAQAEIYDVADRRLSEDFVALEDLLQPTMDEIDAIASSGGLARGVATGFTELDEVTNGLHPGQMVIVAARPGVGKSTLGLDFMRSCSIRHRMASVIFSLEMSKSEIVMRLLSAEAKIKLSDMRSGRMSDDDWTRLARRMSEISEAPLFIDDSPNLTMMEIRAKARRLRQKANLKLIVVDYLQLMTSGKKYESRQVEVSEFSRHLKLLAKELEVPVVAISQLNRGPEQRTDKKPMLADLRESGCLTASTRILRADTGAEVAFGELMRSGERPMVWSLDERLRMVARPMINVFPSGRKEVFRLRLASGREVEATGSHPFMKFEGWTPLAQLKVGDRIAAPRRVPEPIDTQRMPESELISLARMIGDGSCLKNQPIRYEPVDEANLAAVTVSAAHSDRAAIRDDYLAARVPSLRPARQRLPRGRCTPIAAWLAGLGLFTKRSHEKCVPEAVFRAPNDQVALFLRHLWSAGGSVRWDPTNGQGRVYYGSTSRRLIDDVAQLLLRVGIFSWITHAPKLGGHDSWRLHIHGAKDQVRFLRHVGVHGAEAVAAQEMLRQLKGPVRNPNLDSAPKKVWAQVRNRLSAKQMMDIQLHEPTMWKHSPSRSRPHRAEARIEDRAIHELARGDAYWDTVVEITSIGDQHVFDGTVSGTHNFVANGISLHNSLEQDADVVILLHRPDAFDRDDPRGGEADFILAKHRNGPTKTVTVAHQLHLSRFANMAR

[7] = biological target: T7, Heat shock factor protein 1 (Mus musculus, UniProt P38532); assay: enhancement of HSF1-driven luciferase signal – cell-based, NIH3T3, luminescence, dose retest, confirmation (AID 435004); type: functional;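 further: stress induced by proteasome inhibitor MG132 added 30 min after compound; luciferase reporter driven by HSF1 response element in NIH3T3 cells; actives raise luminescence as potentiators of the MG132 stress response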
T7 sequence (P38532 whole entry): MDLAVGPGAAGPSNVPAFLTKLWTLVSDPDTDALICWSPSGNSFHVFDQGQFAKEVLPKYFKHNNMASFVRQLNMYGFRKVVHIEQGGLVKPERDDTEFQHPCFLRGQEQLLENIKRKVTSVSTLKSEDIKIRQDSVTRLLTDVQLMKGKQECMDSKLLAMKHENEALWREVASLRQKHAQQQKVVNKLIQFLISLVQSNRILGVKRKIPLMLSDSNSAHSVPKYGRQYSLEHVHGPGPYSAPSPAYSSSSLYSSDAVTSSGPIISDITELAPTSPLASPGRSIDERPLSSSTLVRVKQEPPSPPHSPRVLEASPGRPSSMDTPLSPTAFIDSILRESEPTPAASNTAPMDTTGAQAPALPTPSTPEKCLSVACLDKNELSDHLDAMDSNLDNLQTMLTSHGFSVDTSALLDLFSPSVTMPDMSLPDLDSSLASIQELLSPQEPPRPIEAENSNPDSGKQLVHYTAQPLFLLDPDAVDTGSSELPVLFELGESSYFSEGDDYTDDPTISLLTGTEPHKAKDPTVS

Protein RecA = biological target: T8, Protein RecA (Mycobacterium tuberculosis, UniProt P9WHJ3); assay: Fluorescence Cell-Free Homogeneous Dose Retest to Identify Inhibitors of RecA-Intein Splicing Activity. [Related pubchem assays (depositor defined):AID2097, AID2223, AID489010, AID492950]; type: functional
T8 sequence (P9WHJ3 whole entry): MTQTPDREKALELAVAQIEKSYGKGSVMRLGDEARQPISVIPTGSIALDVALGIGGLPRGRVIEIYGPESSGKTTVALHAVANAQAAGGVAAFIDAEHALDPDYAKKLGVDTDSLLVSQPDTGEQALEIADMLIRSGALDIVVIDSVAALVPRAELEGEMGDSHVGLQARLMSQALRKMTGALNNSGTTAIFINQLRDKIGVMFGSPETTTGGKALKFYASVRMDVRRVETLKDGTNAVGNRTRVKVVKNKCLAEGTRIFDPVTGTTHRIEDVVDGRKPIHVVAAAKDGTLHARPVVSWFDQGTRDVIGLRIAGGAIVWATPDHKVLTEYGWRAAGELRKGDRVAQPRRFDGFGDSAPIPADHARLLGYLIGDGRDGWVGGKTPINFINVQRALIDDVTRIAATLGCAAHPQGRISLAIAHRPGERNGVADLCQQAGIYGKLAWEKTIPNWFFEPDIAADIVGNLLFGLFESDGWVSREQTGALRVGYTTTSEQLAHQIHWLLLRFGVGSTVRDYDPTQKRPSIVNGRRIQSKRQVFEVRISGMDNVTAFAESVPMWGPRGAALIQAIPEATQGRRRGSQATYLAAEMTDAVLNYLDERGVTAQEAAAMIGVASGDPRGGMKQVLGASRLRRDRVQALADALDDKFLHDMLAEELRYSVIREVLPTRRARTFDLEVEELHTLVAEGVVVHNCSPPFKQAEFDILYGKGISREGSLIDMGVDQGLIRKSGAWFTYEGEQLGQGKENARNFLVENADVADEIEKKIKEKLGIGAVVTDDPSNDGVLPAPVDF

[8] = Intein inhibitors as potential Tuberculosis drugs, a cytotoxicity screen. [Related pubchem assays (depositor defined):AID2221, AID2223, AID434968, AID435010, AID449749, AID449750, AID489010]; type: functional
[9] = biological target: T9, Calpain-2 catalytic subunit (Sus scrofa, UniProt P43367); assay: m-calpain protease blockers, concentration series – biochemical, fluorogenic peptide substrate, dose response (AID 1420); type: functional
T9 sequence (P43367 whole entry): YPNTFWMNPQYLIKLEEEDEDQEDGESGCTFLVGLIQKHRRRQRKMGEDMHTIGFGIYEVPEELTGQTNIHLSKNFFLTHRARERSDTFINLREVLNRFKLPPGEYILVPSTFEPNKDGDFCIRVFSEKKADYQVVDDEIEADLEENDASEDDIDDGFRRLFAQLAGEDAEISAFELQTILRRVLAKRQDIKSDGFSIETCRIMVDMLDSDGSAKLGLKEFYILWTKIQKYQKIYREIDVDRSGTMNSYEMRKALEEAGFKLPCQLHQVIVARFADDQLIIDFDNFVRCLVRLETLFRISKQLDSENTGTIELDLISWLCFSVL

Fatty acid synthase [10] = biological target: T10, Fatty acid synthase (Homo sapiens, UniProt P49327); assay: inhibition of human FAS-TE enzyme activity – biochemical, endpoint fluorescence intensity, uHTS hits, dose response (AID 624327); type: functional;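 further: fluorescence from hydrolysis of an O-methyl fluorescein acyl ester substrate by the enzyme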
Fatty acid synthase [11] = biological target: T10, Fatty acid synthase; assay: inhibition of human FAS-TE enzyme activity – biochemical, kinetic fluorescence intensity, dose response (AID 624326); type: functional;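 further: rate of fluorescence rise from hydrolysis of a fluorogenic O-methyl fluorescein ester substrate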
INS1 = assay: INS-1E survival protection against cytokine death – cell-based, luminescence, retest, dose response (AID 449756); type: functional; settings: Rattus norvegicus;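 further: cell death triggered by IL-1 beta plus TNF-alpha plus IFN-gamma mixture; protective hits raise ATP signal compared with cytokine alone wells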
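Wherever CC50 is given: cells exposed to compound for 72 hours before luminescence readout.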

T5 sequence (Q92731 whole entry): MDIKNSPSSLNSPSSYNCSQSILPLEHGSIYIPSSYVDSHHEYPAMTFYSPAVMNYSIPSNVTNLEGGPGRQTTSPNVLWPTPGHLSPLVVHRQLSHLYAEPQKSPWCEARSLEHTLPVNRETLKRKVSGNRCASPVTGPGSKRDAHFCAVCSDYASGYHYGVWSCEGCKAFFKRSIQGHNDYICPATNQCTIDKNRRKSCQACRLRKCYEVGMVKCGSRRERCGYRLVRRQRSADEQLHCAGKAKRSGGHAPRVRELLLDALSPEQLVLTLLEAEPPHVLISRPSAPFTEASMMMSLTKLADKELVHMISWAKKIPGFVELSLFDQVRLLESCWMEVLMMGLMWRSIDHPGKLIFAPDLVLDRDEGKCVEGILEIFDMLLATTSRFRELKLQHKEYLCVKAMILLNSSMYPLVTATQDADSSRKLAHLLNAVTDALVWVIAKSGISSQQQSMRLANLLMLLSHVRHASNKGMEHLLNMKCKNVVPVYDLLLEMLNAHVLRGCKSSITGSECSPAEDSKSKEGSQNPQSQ
T10 sequence (P49327 whole entry): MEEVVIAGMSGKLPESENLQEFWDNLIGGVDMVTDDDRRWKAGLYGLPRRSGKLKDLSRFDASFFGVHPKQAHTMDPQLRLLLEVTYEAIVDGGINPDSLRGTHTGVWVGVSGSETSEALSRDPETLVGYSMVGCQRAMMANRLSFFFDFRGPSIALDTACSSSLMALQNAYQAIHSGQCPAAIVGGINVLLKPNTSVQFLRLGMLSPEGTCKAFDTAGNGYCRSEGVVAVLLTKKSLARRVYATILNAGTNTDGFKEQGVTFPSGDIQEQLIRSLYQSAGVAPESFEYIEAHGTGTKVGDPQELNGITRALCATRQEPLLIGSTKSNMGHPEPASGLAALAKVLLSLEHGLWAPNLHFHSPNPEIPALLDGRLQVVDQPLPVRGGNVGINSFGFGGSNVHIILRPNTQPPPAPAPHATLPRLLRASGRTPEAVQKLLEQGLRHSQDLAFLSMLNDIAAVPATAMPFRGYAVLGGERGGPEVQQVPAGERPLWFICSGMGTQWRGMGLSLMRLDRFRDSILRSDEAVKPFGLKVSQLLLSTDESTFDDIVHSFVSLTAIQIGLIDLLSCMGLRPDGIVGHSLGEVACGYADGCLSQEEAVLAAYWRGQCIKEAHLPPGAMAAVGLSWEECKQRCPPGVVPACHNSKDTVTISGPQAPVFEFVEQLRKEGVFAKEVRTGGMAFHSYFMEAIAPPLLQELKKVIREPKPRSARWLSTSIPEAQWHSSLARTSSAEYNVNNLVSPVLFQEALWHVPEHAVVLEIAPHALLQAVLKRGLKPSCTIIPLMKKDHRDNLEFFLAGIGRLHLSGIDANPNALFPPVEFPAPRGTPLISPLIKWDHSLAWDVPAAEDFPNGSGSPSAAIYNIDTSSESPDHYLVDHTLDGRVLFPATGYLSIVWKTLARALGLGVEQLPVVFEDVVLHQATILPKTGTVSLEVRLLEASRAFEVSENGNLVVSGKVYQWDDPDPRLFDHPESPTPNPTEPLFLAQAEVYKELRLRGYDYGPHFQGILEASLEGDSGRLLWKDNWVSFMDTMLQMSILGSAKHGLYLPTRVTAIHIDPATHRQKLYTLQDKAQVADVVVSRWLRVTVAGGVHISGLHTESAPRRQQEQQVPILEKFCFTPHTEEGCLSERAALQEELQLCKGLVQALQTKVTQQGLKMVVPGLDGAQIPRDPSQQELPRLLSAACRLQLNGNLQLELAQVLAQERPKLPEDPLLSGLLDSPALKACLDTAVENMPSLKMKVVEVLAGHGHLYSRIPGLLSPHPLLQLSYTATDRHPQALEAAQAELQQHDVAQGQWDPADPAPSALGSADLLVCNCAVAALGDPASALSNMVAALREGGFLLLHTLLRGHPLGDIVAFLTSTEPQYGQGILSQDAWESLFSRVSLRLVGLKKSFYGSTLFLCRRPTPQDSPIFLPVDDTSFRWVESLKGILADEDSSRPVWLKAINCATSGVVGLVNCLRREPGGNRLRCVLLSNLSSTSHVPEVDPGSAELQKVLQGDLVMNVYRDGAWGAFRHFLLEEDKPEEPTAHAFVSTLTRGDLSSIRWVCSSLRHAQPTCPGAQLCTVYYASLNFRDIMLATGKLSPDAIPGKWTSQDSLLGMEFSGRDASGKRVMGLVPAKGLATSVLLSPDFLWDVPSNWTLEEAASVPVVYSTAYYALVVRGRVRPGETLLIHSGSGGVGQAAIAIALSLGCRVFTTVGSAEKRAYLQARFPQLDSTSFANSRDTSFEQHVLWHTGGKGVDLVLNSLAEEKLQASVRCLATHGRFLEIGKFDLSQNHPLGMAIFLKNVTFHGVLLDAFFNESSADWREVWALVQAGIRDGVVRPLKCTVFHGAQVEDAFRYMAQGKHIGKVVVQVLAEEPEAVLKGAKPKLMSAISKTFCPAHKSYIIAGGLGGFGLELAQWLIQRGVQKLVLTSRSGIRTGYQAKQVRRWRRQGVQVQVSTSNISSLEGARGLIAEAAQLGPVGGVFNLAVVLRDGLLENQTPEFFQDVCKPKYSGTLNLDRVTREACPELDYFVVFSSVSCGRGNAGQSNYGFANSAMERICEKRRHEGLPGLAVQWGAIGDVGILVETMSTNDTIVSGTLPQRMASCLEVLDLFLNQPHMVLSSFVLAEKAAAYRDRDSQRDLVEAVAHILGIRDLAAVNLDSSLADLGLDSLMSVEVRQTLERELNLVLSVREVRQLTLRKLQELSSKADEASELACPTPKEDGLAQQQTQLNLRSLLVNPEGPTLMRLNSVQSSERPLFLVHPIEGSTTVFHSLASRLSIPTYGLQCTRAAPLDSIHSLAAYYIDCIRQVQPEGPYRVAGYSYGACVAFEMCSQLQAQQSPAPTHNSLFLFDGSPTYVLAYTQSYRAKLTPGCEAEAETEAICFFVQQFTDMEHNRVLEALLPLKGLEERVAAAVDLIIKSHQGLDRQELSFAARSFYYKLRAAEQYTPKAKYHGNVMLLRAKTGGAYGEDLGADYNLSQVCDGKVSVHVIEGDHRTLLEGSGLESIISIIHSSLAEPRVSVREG

## COc1ccc(N2CCN(C(=O)c3ccc(Br)o3)CC2)cc1
[1]
  AC50: 7.33 µM (active)

## CN(C)c1ccc(/C=N/Nc2cccc(C(=O)O)c2)cc1
[2]
  IC50: > 39.8 µM (not active)

## CCC(=O)c1ccc(OC(=O)c2cccs2)cc1
[1]
  AC50: > 100 µM (inactive)

## CCOC(=O)C1=C(O)/C(=C\c2ccc(CNC(=O)C(=O)Nc3ccccc3)o2)N=C1C
Estrogen receptor
  IC50: 5.73 µM (active)
Protein Tat
  IC50: 5.9 µM (inconclusive)
[3]
  IC50: 8.55 µM (active)
Estrogen receptor beta [4]
  IC50: < 1.56 µM (active)
Estrogen receptor beta [5]
  IC50: 1.95 µM (not active)

## Cc1[nH]n(-c2ccccc2)c(=O)c1C(C[N+](=O)[O-])c1ccc(F)cc1 (centres undefined)
[6]
  AC50: 0.729 µM (active)
[7]
  EC50: > 260 µM (inactive)
Protein RecA
  EC50: 4.2 µM (active)
[8]
  CC50: > 40 µM (active)

## CC(=N)/C(C#N)=C(/O)CSc1nnc(COc2ccccc2Cl)o1
Estrogen receptor
  IC50: 37.2 µM (not active)
Estrogen receptor beta [4]
  IC50: 8.99 µM (active)
Estrogen receptor beta [5]
  IC50: 5.64 µM (not active)
[9]
  IC50: < 0.4 µM (not active)

## COC(=O)c1ccc(OC(=O)c2cccs2)cc1
[1]
  AC50: 7.15 µM (active)

## Cn1cccc1C(C#N)c1ccccc1C#N (centres undefined)
[1]
  AC50: 7.71 µM (active)

## CC(CCc1ccccc1)NC(=O)COC(=O)c1cc(NS(=O)(=O)c2ccc(Cl)c([N+](=O)[O-])c2)ccc1O (centres undefined)
Fatty acid synthase [10]
  IC50: 11.1 µM (active)
[6]
  AC50: 3.63 µM (active)
Fatty acid synthase [11]
  IC50: 6.97 µM (active)
Protein RecA
  EC50: 2.95 µM (active)
[8]
  CC50: 32.9 µM (active)

## O=C(Nc1cccnc1)c1cccs1
[2]
  IC50: 38.4 µM (not active)
INS1
  AC50: 6.6 µM (active)
[9]
  IC50: > 50 µM (not active)

## O=S(=O)(NCc1csc(-c2cccnc2)n1)c1ccc(Cl)s1
Estrogen receptor
  IC50: 13.6 µM (active)
Estrogen receptor beta [4]
  IC50: 11.8 µM (active)
Estrogen receptor beta [5]
  IC50: 99.4 µM (not active)

Reference: ChEMBL document CHEMBL1201862, “PubChem BioAssay data set” (2004)
